Reference: US20180111913A1, “SUBSTITUTED BENZOFURAN DERIVATIVES AS NOVEL ANTIMYCOBACTERIAL AGENTS” (priority 2015, published 2018)
Values after ≈ are worked out from the molar mass of the structure shown. Read-outs that look alike come from different tables or passages of the source.

Legend:
[1] = biological target: Mtb Pks13-TE domain (wild-type) (Mycobacterium tuberculosis, UniProt I6X8D2); experiment: biochemical; format: biochemical
[2] = GKO mice, 300 mg/kg, 200 mg/kg from day 4; seizures
M tuberculosis = format: in vivo, Mycobacterium tuberculosis in GKO mice
Mtb strain mc^27000 = experiment: microbe, parasite or virus in culture; format: cell-based, Mycobacterium tuberculosis
[3] = tested on: human dermal fibroblast (HDF) cells; conditions: for Survival vs. Control: HDF cell survival relative to DMSO-only control at the first (or only) Non-Toxic Concentration value; for Non-Toxic Concentration: human, 48 h
Mtb (Erdman lux strain) = format: in vivo, Mycobacterium tuberculosis in female Balb/C mice
Mtb isolate H37Rv = conditions: whole-cell screen; cited from earlier work
[4] = Pks13-TE, 20 μM 4-MUH, read-out: IC50
[5] = Pks13 enzyme inhibition, read-out: Pks13 IC50
[6] = Mycobacterium tuberculosis, read-out: Pks13 MIC
[7] = Mycobacterium tuberculosis, Mtb mc^27000, liquid medium, 96-well plates, read-out: MIC

Chain of Mtb Pks13-TE domain (wild-type) (I6X8D2 1451-1733): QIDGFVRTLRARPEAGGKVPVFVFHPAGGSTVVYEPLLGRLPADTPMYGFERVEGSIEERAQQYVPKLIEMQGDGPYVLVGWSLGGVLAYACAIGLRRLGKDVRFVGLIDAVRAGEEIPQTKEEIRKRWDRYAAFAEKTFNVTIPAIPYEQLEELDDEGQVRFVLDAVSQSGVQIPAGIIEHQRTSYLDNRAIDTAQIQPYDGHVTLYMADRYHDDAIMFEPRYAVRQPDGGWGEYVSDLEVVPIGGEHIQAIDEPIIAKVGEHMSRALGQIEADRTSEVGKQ

## CNC(=O)c1c(-c2ccccc2)oc2ccc(O)c(CN3CCCCC3)c12 [compound 17]
[1]; Mtb Pks13-TE domain, mean ± s.d. of triplicates, read-out: IC50
  IC50: 290 ± 10 nM
[1]; [4]
  IC50: 290 nM
[1]; [5]
  IC50: 290 nM
[2]
  toxicity observed during dosing: apparent toxicity
M tuberculosis; GKO mice, 300 mg/kg then 200 mg/kg from day 4, sacrificed day 8 of dosing, no drug clearance period, lungs
  log CFU reduction versus untreated control in the lungs: 0.53 log CFU
M tuberculosis; GKO mice, 300 mg/kg then 200 mg/kg from day 4, sacrificed day 8 of dosing, no drug clearance period, spleen
  log CFU reduction versus untreated control in the spleen: 3.72 log CFU
M tuberculosis; mouse, in vivo
  Lung CFU: 7.21
  Lung RLU: 4.24
  Spleen CFU: 3.01
  Spleen RLU: 1.85
Mtb strain mc^27000; Mtb mc^27000, liquid medium, 96-well plates, listed as compound L, read-out: MIC
  MIC: 0.2 µM (≈ 0.0729 µg/mL)
Mtb strain mc^27000; Mtb mc^27000, liquid medium, 96-well plates, read-out: MIC
  MIC: 2 µM (≈ 0.729 µg/mL)
Mtb strain mc^27000; Mycobacterium tuberculosis, […], mean ± s.d. of triplicates, NI: no inhibition, read-out: MIC
  MIC: 0.2 µM (≈ 0.0729 µg/mL)
Mtb strain mc^27000; [6]
  MIC: 0.2 µM (≈ 0.0729 µg/mL)
Mtb strain mc^27000; relative to test compound
  MIC lower than that of the test compound: > 10 fold
[3]
  growth inhibition in HDF cells relative to DMSO only control: did not show any growth inhibition
  Survival vs. Control: 103%
  Non-Toxic Concentration: 50 µM

## CNC(=O)c1c(-c2ccc(OC)cc2)oc2ccc(O)c(CN3CCCCC3)c12 [compound 31]
[1]; [4]
  IC50: 260 nM
[1]; [5]
  IC50: 260 nM
M tuberculosis; GKO mice, 100 mg/kg oral once daily, 9 days, lungs
  log CFU reduction in the lungs vs. untreated controls: 0.84 log CFU
M tuberculosis; GKO mice, 100 mg/kg oral once daily, 9 days, spleen
  log CFU reduction in the spleen relative to untreated controls: 1.54 log CFU
M tuberculosis; mouse, in vivo
  Diff of Means, Control vs. treatment, Lung: 0.834
  Diff of Means, Control vs. treatment, Spleen: 2.623
  Diff of Means, Inhibitor 31 vs. Inhibitor 32, Lung: 0.340
  Diff of Means, Inhibitor 31 vs. Inhibitor 32, Spleen: 0.522
  Diff of Means, Inhibitor 31 vs. Isoniazid, Lung: 2.179
  Diff of Means, Inhibitor 31 vs. Isoniazid, Spleen: 2.101
  Lung CFU: 7.33
  Lung RLU: 5.06
  Spleen CFU: 5.11
  Spleen RLU: 2.59
Mtb strain mc^27000; [7]
  MIC: 1.1 µM (≈ 0.434 µg/mL)
Mtb strain mc^27000; [6]
  MIC: 1.1 µM (≈ 0.434 µg/mL)
[3]
  Survival vs. Control: 111%
  Non-Toxic Concentration: 50 µM

## CNC(=O)c1c(-c2ccc(O)cc2)oc2cc(O)cc(CN3CCCCC3)c12 [compound 47]
[1]; [4]
  IC50: 570 nM
M tuberculosis; GKO mice, 300 mg/kg dosing
  activity in the lungs or the spleen, in words: did not show any activity
M tuberculosis; mouse, in vivo
  Lung CFU: 8.39
  Lung RLU: 6.09
  Spleen CFU: 6.84
  Spleen RLU: 4.45
Mtb strain mc^27000; [7]
  MIC: 1 µM (≈ 0.38 µg/mL)
Mtb strain mc^27000; [6]
  MIC: 1 µM (≈ 0.38 µg/mL)
[3]
  Survival vs. Control: 98%
  Non-Toxic Concentration: 50 µM

## CCOC(=O)c1c(-c2cc(F)c(O)c(F)c2)oc2ccc(O)c(CN3CCCCC3)c12 [compound 63]
[1]; [4]
  IC50: 500 nM
[1]; [5]
  IC50: 500 nM
Mtb strain mc^27000; [7]
  MIC: 7 µM (≈ 3.02 µg/mL)
Mtb strain mc^27000; [6]
  MIC: 7 µM (≈ 3.02 µg/mL)
[3]
  Survival vs. Control: 99%
  Non-Toxic Concentration: 25 µM

## CNC(=O)c1c(-c2cc(F)c(O)c(F)c2)oc2ccc(O)c(CN3CCCCC3)c12 [compound 64]
[1]; [4]
  IC50: 1500 nM
[1]; [5]
  IC50: 1500 to 1900 nM
Mtb strain mc^27000; [7]
  MIC: > 40 µM
Mtb strain mc^27000; whole cell, mc^27000 Mtb, NI at 40 μM
  Pks13 MIC: NI (40 μM)
[3]
  Survival vs. Control: 94%
  Non-Toxic Concentration: 100 µM

## OCc1c(-c2ccccc2)oc2ccc(O)c(CN3CCCCC3)c12 [compound 65]
[1]; [4]
  IC50: 240 nM
[1]; [5]
  IC50: 240 nM
Mtb strain mc^27000; [7]
  MIC: 12.5 µM (≈ 4.22 µg/mL)
Mtb strain mc^27000; [6]
  MIC: 6 to 12.5 µM (≈ 2.02 to 4.22 µg/mL)
[3]
  Survival vs. Control: 95%
  Non-Toxic Concentration: 25 µM

## COC(=O)c1c(-c2ccccc2)oc2cc(O)cc(CNC(C)C)c12 [compound 67]
[1]; [5]
  IC50: 700 nM
Mtb strain mc^27000; [7]
  MIC: 9 µM (≈ 3.05 µg/mL)
Mtb strain mc^27000; [6]
  MIC: 9 µM (≈ 3.05 µg/mL)
[3]
  Survival vs. Control: 97%
  Non-Toxic Concentration: 25 µM

## CCOC(=O)c1c(-c2ccccc2)oc2cc(O)cc(CN3CCC(C#N)CC3)c12 [compound 69]
[1]; [4]
  IC50: 1600 nM
[1]; [5]
  IC50: 1600 nM
Mtb strain mc^27000; [7]
  MIC: 20 µM (≈ 8.09 µg/mL)
Mtb strain mc^27000; [6]
  MIC: 20 µM (≈ 8.09 µg/mL)
[3]
  Survival vs. Control: 93%
  Non-Toxic Concentration: 50 µM

## CCOC(=O)c1c(-c2ccccc2)oc2cc(O)cc(CN3CCC(NC(C)=O)CC3)c12 [compound 70]
[1]; [4]
  IC50: 6100 nM
[1]; [5]
  IC50: 6100 nM
Mtb strain mc^27000; [7]
  MIC: > 40 µM
Mtb strain mc^27000; [6]
  MIC: > 40 µM
[3]
  Survival vs. Control: 91%
  Non-Toxic Concentration: 50 µM

## CCOC(=O)c1c(-c2ccccc2)oc2cc(OC)cc(CNC(C)C)c12 [compound 72]
[1]; [4]
  IC50: > 10000 nM
[1]; [5]
  IC50: > 10000 nM
Mtb strain mc^27000; [7]
  MIC: 7.4 µM (≈ 2.72 µg/mL)
Mtb strain mc^27000; [6]
  MIC: 7.4 µM (≈ 2.72 µg/mL)
[3]
  Survival vs. Control: 91%
  Non-Toxic Concentration: 3.125 µM

## CCOC(=O)c1c(-c2ccc(F)cc2)oc2cc(O)cc(CCNC(C)C)c12 [compound 73]
[1]; [4]
  IC50: 2100 nM
[1]; [5]
  IC50: 1500 to 2100 nM
Mtb strain mc^27000; [7]
  MIC: 2.5 µM (≈ 0.964 µg/mL)
Mtb strain mc^27000; [6]
  MIC: 2.5 µM (≈ 0.964 µg/mL)
[3]
  Survival vs. Control: 97%
  Non-Toxic Concentration: 12.5 µM

## CNC(=O)c1c(-c2ccc(O)nc2)oc2cc(O)cc(CN3CCCCC3)c12 [compound 88]
[1]; [5]
  IC50: 2800 nM
Mtb strain mc^27000; [7]
  MIC: 2.8 µM (≈ 1.07 µg/mL)
[3]
  Survival vs. Control: 96%
  Non-Toxic Concentration: 50 µM

## CCOC(=O)c1c(-c2ccccc2)oc2ccc(O)c(CCN3CCCC3)c12 [compound 102]
[1]; [4]
  IC50: 2500 nM
[1]; [5]
  IC50: 700 nM
Mtb strain mc^27000; [7]
  MIC: 0.7 µM (≈ 0.266 µg/mL)
[3]
  Survival vs. Control: 91%
  Non-Toxic Concentration: 1.56 µM

## NNC(=O)c1ccncc1 [isoniazid, reference compound]
M tuberculosis; mouse, in vivo
  Diff of Means, Control vs. treatment, Lung: 3.013
  Diff of Means, Control vs. treatment, Spleen: 3.644
  Lung CFU: 5.15
  Lung RLU: 3.51
  Spleen CFU: 2.49
  Spleen RLU: 1.77
  log CFU reduction in the spleen: 4.16 log CFU
  log CFU reduction relative to untreated control in the lungs: 3.02 log CFU
M tuberculosis; mouse, in vivo, 25 mg/kg
  log reduction in RLU (luciferase assay): 1.01 log
Mtb (Erdman lux strain); Balb/C mice, isoniazid control 25 mg/kg, 4 weeks, spleen
  log reduction (CFU) in the spleen: 2.52 log
Mtb (Erdman lux strain); […], organ not given, values match spleen reductions of b137
  Diff of Means, Control vs. treatment: 2.523
Mtb (Erdman lux strain); mouse, in vivo
  Lung CFU: 4.98
  Lung RLU: 2.37
  Spleen CFU: 2.35
  Spleen RLU: 1.59
  log reduction (CFU) in the lungs: 1.11 log

## CCOC(=O)c1c(-c2ccccc2)oc2ccc(O)c(CN3CCC(C)CC3)c12 [test compound]
Mtb isolate H37Rv
  MIC against Mtb isolate H37Rv: 2.0 µM (≈ 0.787 µg/mL)
